Measured values from US7361671B2, “Substituted heteroarylalkanoic acids” (The Institute for Pharmaceutical Discovery, Inc., priority 2001, dated 2008).
Where a name gives a salt, the structure may show the parent alone.

How the values were obtained:
blood uric acid levels = assay: Uricosuric activity in the chimpanzee: concentrations of uric acid in serum; type: in vivo; settings: single oral 4 mg/kg dose; for Concentrations of uric acid in serum, mean: mean of chimps
Procedure: (§1) Compound of Example 14 was administered to chimpanzees orally as a single 4 mg/kg does. While four animals were dosed, complete data was not collected for one animal (Chimp #4), as an adverse reaction to anesthesia required early termination of this animal from the study.

[1] = system: urinary excretion of uric acid; assay: Uricosuric activity in the chimpanzee: amount of uric acid excreted in the urine; type: in vivo; settings: single oral 4 mg/kg dose; for Amount of uric acid excreted in the urine in 24 hour intervals, mean: mean of chimps
Procedure: as §1

[2] = target: human aldose reductase (hALR2) (Homo sapiens, UniProt P15121); assay: inhibition of human aldose reductase (hALR2) activity, methods similar to Butera et al.; type: biochemical; settings: concentration to inhibit activity by 50%, read-out: hAR-#1 (aldose)
Procedure: Representative compounds of the invention are tested for their potency, selectivity and efficacy as inhibitors of human aldose reductase. […] Using this assay, the concentrations required to inhibit human aldose reductase (hALR2) activity by 50% (IC50) are determined.

O=C(O)Cc1cc(Cc2nc3cc(C(F)(F)F)ccc3s2)cs1 (as salt: hydrochloride)
melting point: 131 to 132 °C

O=C(O)Cc1cncc(Cc2nc3c(F)c(F)cc(F)c3s2)c1 (as salt: hydrochloride) [Example 8, 5-(4,5,7-trifluoro-benzothiazol-2-ylmethyl)-pyridin-3-yl-acetic acid hydrochloride]
melting point: 196 to 197 °C

Cc1nc(C)c(Cc2nc3c(F)c(F)cc(F)c3s2)c(C)c1CC(=O)O (as salt: hydrochloride) [Example 9, 2,4,6-trimethyl-5-(4,5,7-trifluoro-benzothiazol-2-ylmethyl)-pyridin-3-yl-acetic acid hydrochloride]
melting point: 216 to 217 °C

CCc1c(CC(=O)O)c(C)nc(C)c1Cc1nc2c(F)c(F)cc(F)c2s1 (as salt: hydrochloride) [Example 10, 2,6-dimethyl-4-ethyl-5-(4,5,7-trifluoro-benzothiazol-2-ylmethyl)-pyridin-3-yl-acetic acid hydrochloride]
melting point: 193 to 195 °C

O=C(O)Cc1cc(Cc2nc3c(F)c(F)cc(F)c3s2)cnc1Cc1ccccc1 (as salt: hydrochloride) [Example 12, 2-benzyl-5-(4,5,7-trifluoro-benzothiazol-2-ylmethyl)-pyridin-3-yl-acetic acid hydrochloride]
melting point: 175 °C (dec.)

O=C(O)Cc1cc(Cc2nc3c(F)c(F)cc(F)c3s2)cnc1-c1ccccc1 (as salt: hydrochloride) [Example 13, 2-phenyl-5-(4,5,7-trifluoro-benzothiazol-2-ylmethyl)-pyridin-3-yl-acetic acid hydrochloride]
melting point: 110 °C (dec.)

CCc1ncc(CC(=O)O)cc1Cc1nc2c(F)c(F)cc(F)c2s1 (as salt: hydrochloride) [Example 14, 6-ethyl-5-(4,5,7-trifluoro-benzothiazol-2-ylmethyl)-pyridin-3-yl-acetic acid hydrochloride]
melting point: 220 °C (dec.)

O=C(O)Cc1cnc(-c2ccccc2)c(Cc2nc3c(F)c(F)cc(F)c3s2)c1 (as salt: hydrochloride) [Example 15, 6-Phenyl-5-(4,5,7-trifluoro-benzothiazol-2-ylmethyl)-pyridin-3-yl-acetic acid hydrochloride]
melting point: 205 to 207 °C (dec.)

CCc1ncc(CC(=O)O)cc1Cc1nc2c(F)c(F)cc(F)c2s1 [Example 14, 6-ethyl-5-(4,5,7-trifluoro-benzothiazol-2-ylmethyl)-pyridin-3-yl-acetic acid hydrochloride]
Concentrations of uric acid in serum (blood uric acid levels; Chimp #1, 0 hours): 3.0 mg/dL
Concentrations of uric acid in serum (blood uric acid levels; Chimp #1, 0.25 hours): 3.0 mg/dL
Concentrations of uric acid in serum (blood uric acid levels; Chimp #1, 0.50 hours): 3.0 mg/dL
Concentrations of uric acid in serum (blood uric acid levels; Chimp #1, 1.0 hours): 3.0 mg/dL
Concentrations of uric acid in serum (blood uric acid levels; Chimp #1, 2.0 hours): 2.8 mg/dL
Concentrations of uric acid in serum (blood uric acid levels; Chimp #1, 6.0 hours): 2.2 mg/dL
Concentrations of uric acid in serum (blood uric acid levels; Chimp #1, 12 hours): 1.9 mg/dL
Concentrations of uric acid in serum (blood uric acid levels; Chimp #1, 24 hours): 2.3 mg/dL
Concentrations of uric acid in serum (blood uric acid levels; Chimp #1, 48 hours): 3.4 mg/dL
Concentrations of uric acid in serum (blood uric acid levels; Chimp #1, 72 hours): 3.2 mg/dL
Concentrations of uric acid in serum (blood uric acid levels; Chimp #1, Baseline): 2.9 mg/dL
Concentrations of uric acid in serum (blood uric acid levels; Chimp #2, 0 hours): 1.7 mg/dL
Concentrations of uric acid in serum (blood uric acid levels; Chimp #2, 0.25 hours): 1.8 mg/dL
Concentrations of uric acid in serum (blood uric acid levels; Chimp #2, 0.50 hours): 1.8 mg/dL
Concentrations of uric acid in serum (blood uric acid levels; Chimp #2, 1.0 hours): 1.8 mg/dL
Concentrations of uric acid in serum (blood uric acid levels; Chimp #2, 2.0 hours): 1.7 mg/dL
Concentrations of uric acid in serum (blood uric acid levels; Chimp #2, 6.0 hours): 1.2 mg/dL
Concentrations of uric acid in serum (blood uric acid levels; Chimp #2, 12 hours): 0.9 mg/dL
Concentrations of uric acid in serum (blood uric acid levels; Chimp #2, 24 hours): 1.4 mg/dL
Concentrations of uric acid in serum (blood uric acid levels; Chimp #2, 48 hours): 1.2 mg/dL
Concentrations of uric acid in serum (blood uric acid levels; Chimp #2, 72 hours): 1.4 mg/dL
Concentrations of uric acid in serum (blood uric acid levels; Chimp #2, Baseline): 1.9 mg/dL
Concentrations of uric acid in serum (blood uric acid levels; Chimp #3, 0 hours): 2.2 mg/dL
Concentrations of uric acid in serum (blood uric acid levels; Chimp #3, 0.25 hours): 2.3 mg/dL
Concentrations of uric acid in serum (blood uric acid levels; Chimp #3, 0.50 hours): 2.3 mg/dL
Concentrations of uric acid in serum (blood uric acid levels; Chimp #3, 1.0 hours): 2.1 mg/dL
Concentrations of uric acid in serum (blood uric acid levels; Chimp #3, 2.0 hours): 1.9 mg/dL
Concentrations of uric acid in serum (blood uric acid levels; Chimp #3, 6.0 hours): 1.6 mg/dL
Concentrations of uric acid in serum (blood uric acid levels; Chimp #3, 12 hours): 1.6 mg/dL
Concentrations of uric acid in serum (blood uric acid levels; Chimp #3, 24 hours): 1.9 mg/dL
Concentrations of uric acid in serum (blood uric acid levels; Chimp #3, 48 hours): 1.9 mg/dL
Concentrations of uric acid in serum (blood uric acid levels; Chimp #3, 72 hours): 2.4 mg/dL
Concentrations of uric acid in serum (blood uric acid levels; Chimp #3, Baseline): 2.3 mg/dL
Concentrations of uric acid in serum (blood uric acid levels; Chimp #4, 0 hours): 2.5 mg/dL
Concentrations of uric acid in serum (blood uric acid levels; Chimp #4, 0.25 hours): 2.6 mg/dL
Concentrations of uric acid in serum (blood uric acid levels; Chimp #4, 0.50 hours): 2.5 mg/dL
Concentrations of uric acid in serum (blood uric acid levels; Chimp #4, 1.0 hours): 2.7 mg/dL
Concentrations of uric acid in serum (blood uric acid levels; Chimp #4, 2.0 hours): 2.3 mg/dL
Concentrations of uric acid in serum (blood uric acid levels; Chimp #4, 6.0 hours): 1.8 mg/dL
Concentrations of uric acid in serum (blood uric acid levels; Chimp #4, 12 hours): 1.7 mg/dL
Concentrations of uric acid in serum (blood uric acid levels; Chimp #4, Baseline): 2.5 mg/dL
maximal lowering of blood uric acid levels (blood uric acid levels; chimpanzee, average of three animals, at approximately 12 hours following dosage): about 44%
uricosuric effect (blood uric acid levels; chimpanzee, data from three animals): clear uricosuric effect
Concentrations of uric acid in serum, mean (blood uric acid levels; 0 hours): 2.4 mg/dL
Concentrations of uric acid in serum, mean (blood uric acid levels; 0.25 hours): 2.4 mg/dL
Concentrations of uric acid in serum, mean (blood uric acid levels; 0.50 hours): 2.4 mg/dL
Concentrations of uric acid in serum, mean (blood uric acid levels; 1.0 hours): 2.4 mg/dL
Concentrations of uric acid in serum, mean (blood uric acid levels; 2.0 hours): 2.2 mg/dL
Concentrations of uric acid in serum, mean (blood uric acid levels; 6.0 hours): 1.7 mg/dL
Concentrations of uric acid in serum, mean (blood uric acid levels; 12 hours): 1.5 mg/dL
Concentrations of uric acid in serum, mean (blood uric acid levels; 24 hours): 1.9 mg/dL
Concentrations of uric acid in serum, mean (blood uric acid levels; 48 hours): 2.2 mg/dL
Concentrations of uric acid in serum, mean (blood uric acid levels; 72 hours): 2.3 mg/dL
Concentrations of uric acid in serum, mean (blood uric acid levels; Baseline): 2.4 mg/dL
Amount of uric acid excreted in the urine in 24 hour intervals ([1]; Chimp #1, 0-24 hours): 1020 mg
Amount of uric acid excreted in the urine in 24 hour intervals ([1]; Chimp #1, 24-48 hours): 686 mg
Amount of uric acid excreted in the urine in 24 hour intervals ([1]; Chimp #1, 48-72 hours): 657 mg
Amount of uric acid excreted in the urine in 24 hour intervals ([1]; Chimp #1, Baseline): 321 mg
Amount of uric acid excreted in the urine in 24 hour intervals ([1]; Chimp #2, 0-24 hours): 758 mg
Amount of uric acid excreted in the urine in 24 hour intervals ([1]; Chimp #2, 24-48 hours): 399 mg
Amount of uric acid excreted in the urine in 24 hour intervals ([1]; Chimp #2, 48-72 hours): 290 mg
Amount of uric acid excreted in the urine in 24 hour intervals ([1]; Chimp #2, Baseline): 474 mg
Amount of uric acid excreted in the urine in 24 hour intervals ([1]; Chimp #3, 0-24 hours): 843 mg
Amount of uric acid excreted in the urine in 24 hour intervals ([1]; Chimp #3, 24-48 hours): 189 mg
Amount of uric acid excreted in the urine in 24 hour intervals ([1]; Chimp #3, 48-72 hours): 216 mg
Amount of uric acid excreted in the urine in 24 hour intervals ([1]; Chimp #3, Baseline): 347 mg
Amount of uric acid excreted in the urine in 24 hour intervals ([1]; Chimp #4, Baseline): 450 mg
urinary excretion of uric acid ([1]; chimpanzee, over the first 24 hours following dosage): concomitant increase in the urinary excretion of uric acid
Amount of uric acid excreted in the urine in 24 hour intervals, mean ([1]; 0-24 hours): 874 mg
Amount of uric acid excreted in the urine in 24 hour intervals, mean ([1]; 24-48 hours): 425 mg
Amount of uric acid excreted in the urine in 24 hour intervals, mean ([1]; 48-72 hours): 388 mg
Amount of uric acid excreted in the urine in 24 hour intervals, mean ([1]; Baseline): 398 mg
IC50 [2]: 7 nM
